Source: patent US20110183958A1, “AZETIDINE DERIVATIVES AS INHIBITORS OF STEAROYL-COENZYME A DELTA-9 DESATURASE” (Merck Frosst Canada Ltd., priority 2008, published 2011)

molecular target: T1, human SCD1 (hSCD-1) (Homo sapiens, UniProt O00767); assay: SCD enzyme activity assay with reconstituted human SCD1 (hSCD-1); type: biochemical
T1 construct: made in house; host or cells: baculovirus/Sf9
T1 sequence (O00767 1-359): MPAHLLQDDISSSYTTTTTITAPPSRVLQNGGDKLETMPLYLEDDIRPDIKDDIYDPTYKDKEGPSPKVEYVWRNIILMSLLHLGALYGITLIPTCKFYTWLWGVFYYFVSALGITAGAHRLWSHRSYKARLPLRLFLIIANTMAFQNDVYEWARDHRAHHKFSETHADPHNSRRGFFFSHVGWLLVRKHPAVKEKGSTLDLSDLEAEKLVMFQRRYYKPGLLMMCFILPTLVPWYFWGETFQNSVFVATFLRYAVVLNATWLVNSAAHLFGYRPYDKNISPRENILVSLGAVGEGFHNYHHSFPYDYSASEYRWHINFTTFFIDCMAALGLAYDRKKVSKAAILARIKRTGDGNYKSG
Procedure: I. SCD Enzyme Activity Assay:
The potency of compounds of formula I against the stearoyl-CoA desaturase was determined by measuring the conversion of radiolabeled stearoyl-CoA to oleoyl-CoA using rat liver microsome or human SCD1 (hSCD-1) following previously published procedures with some modifications (Joshi, et al., J. Lipid Res., 18: 32-36 (1977); Talamo, et al., Anal. Biochem, 29: 300-304 (1969)). Liver microsome was prepared from male Wistar or Sprague Dawley rats on a high carbohydrate diet for 3 days (LabDiet # 5803, Purina). The livers were homogenized (1:10 w/v) in a buffer containing 250 mM sucrose, 1 mM EDTA, 5 mM DTT and 50 mM Tris-HCl (pH 7.5). After a 100,000×g centrifugation for […], the liver microsome pellet was suspended in a buffer containing 100 mM sodium phosphate, 20% glycerol, 2 mM DTT, and stored at −78° C. Human SCD1 desaturase system was reconstituted using human SCD1 from a baculovirus/Sf9 expression system, cytochrome B5 and cytochrome B5 reductase. Typically, test compound in 2 μL DMSO was incubated for 15 min at room temperature with 180 μL of the SCD enzyme in a buffer containing 100 mM Tris-HCl (pH 7.5), ATP (5 mM), Coenzyme-A (0.1 mM), Triton X-100 (0.5 mM) and NADH (2 mM). The reaction was initiated by the addition of 20 μL of [^3H]-stearoyl-CoA (final concentration=2 μM, radioactivity concentration=1 μCi/mL). After 10 min, the reaction mixture (80 μL) was mixed with a calcium chloride/charcoal aqueous suspension (100 μL, charcoal (10% w/v) plus 25 μL, CaCl2 (2N). After centrifugation to precipitate the radioactive fatty acid species, tritiated water released from 9,10-[^3H]-stearoyl-CoA by the SCD enzyme was quantified on a scintillation counter.

Compound | IC50 [µM]
O=C(Nc1ccc(-c2cc[nH]n2)cc1)c1cnc(N2CC(Oc3cc(F)ccc3Br)C2)cn1 | 0.016
O=C(Nc1ccsc1)c1cnc(N2CC(Oc3cc(F)ccc3Br)C2)cn1 | 0.024
CS(=O)(=O)c1ccc(NC(=O)c2cnc(N3CC(Oc4cc(F)ccc4Br)C3)cn2)cc1 | 0.011
O=C(O)CCc1ccc(NC(=O)c2cnc(N3CC(Oc4cc(F)ccc4Br)C3)cn2)cc1 | 0.045
CNC(=O)c1cnc(N2CC(Oc3cc(F)ccc3Br)C2)cn1 | 0.045
O=C(Nc1ccc2ccccc2c1)c1cnc(N2CC(Oc3cc(F)ccc3Br)C2)cn1 | 0.023
COc1ccc(NC(=O)c2cnc(N3CC(Oc4cc(F)ccc4Br)C3)cn2)cc1 | 0.009
O=C(Nc1ccccc1)c1cnc(N2CC(Oc3cc(F)ccc3Br)C2)cn1 | 0.029
